Data reported in patent US20060063755A1, “Loxapine analogs and methods of use thereof” (priority 2004, published 2006).
Values joined by “and” are separate entries in the source; they are usually repeats but may differ in a detail not shown here. Identical values can stand only once.

Assays:
alpha 1 receptors = assay: Alpha 1 receptor binding assay; settings: read-out: Ki Alpha1
Protocol: (§1) Binding assays were performed using the disclosed sleep-inducing agents and derivatives selected from those listed in Table 1 in competitive binding assays with known standards for the H1 histamine receptor, and the M1, M2, and M3 muscarinic receptors, alpha 1 and alpha 2 receptors, and D1 and D2 receptors.

alpha 2 receptors = assay: Alpha 2 receptor binding assay; settings: read-out: Ki Alpha2
Protocol: as §1

D2 receptors = D2 receptors (Homo sapiens, UniProt P14416); assay: Dopamine D2 binding assay (human)
Protocol: as §1, with “receptors. […]” for “receptors.”

Dopamine, D1 = Dopamine, D1 (Homo sapiens, UniProt P21728); assay: Dopamine D1 (human recombinant) binding assay
Protocol: as §1
Dopamine, D1 (human recombinant) binding assay was performed according to published procedures. See, e.g., Jarvie, et al. J. Recept Res., 13(1-4): 573-90 (1993); and Billard, et al. Life Sciences, 35(18): 1885-93 (1984), with modifications

M3 muscarinic receptor = target: T1, M3 muscarinic receptor (Homo sapiens, UniProt P20309); assay: M3 binding assay, [3H]-scopolamine N-methyl chloride, CHO cells; settings: human recombinant
T1 construct: purchased PerkinElmer, Inc., Wellesley, Mass; host or cells: CHO cells

M1 muscarinic receptor = target: T2, M1 muscarinic receptor (Homo sapiens, UniProt P11229); assay: M1 binding assay, [3H]-scopolamine N-methyl chloride, CHO cells; settings: human recombinant
T2 construct: purchased PerkinElmer, Inc., Wellesley, Mass; host or cells: CHO cells
T2 sequence (P11229 1-460): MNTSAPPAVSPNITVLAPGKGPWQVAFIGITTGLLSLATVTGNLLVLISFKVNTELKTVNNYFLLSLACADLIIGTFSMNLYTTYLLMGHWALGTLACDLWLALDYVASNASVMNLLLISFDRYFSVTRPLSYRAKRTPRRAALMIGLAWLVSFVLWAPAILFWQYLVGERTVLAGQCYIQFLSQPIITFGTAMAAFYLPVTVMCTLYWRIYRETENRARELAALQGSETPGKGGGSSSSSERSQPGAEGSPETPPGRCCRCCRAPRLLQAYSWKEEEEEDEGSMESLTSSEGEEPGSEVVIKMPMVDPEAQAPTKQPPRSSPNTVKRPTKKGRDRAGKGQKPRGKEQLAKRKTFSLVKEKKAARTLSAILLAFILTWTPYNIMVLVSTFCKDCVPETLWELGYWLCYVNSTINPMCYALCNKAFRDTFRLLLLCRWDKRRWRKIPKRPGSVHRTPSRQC

hERG channel = hERG channel (Homo sapiens, UniProt Q12809); assay: hERG channel current block, whole cell recording in HEK293 cells; assay type: cell-based; settings: HEK293 cells expressing hERG
Protocol: Other in vitro selection criteria for loxapine analogs of the invention includes hERG binding.
(Brown and Rampe (2000)).
In one embodiment of the HERG assay, the positive control (i.e., reference compound) is terfenadine (Sigma, St. Louis Mo.), which has been shown, at a concentration of 60 nM, to block HERG current by approximately 75%. Test compounds are delivered in HEPES-buffered physiological saline (HB-PS)+0.1% dimethyl sulfoxide (DMSO).
Clin. Exp. Allergy 29 Suppl 3, 174-181.
If the final DMSO concentration must be greater than 0.3%, to reach a specified test article concentration, a separate vehicle control test with an n>2 was performed at the highest final DMSO concentration.
Each cell acted as its own control. […] One concentration of the positive control article (60 nM terfenadine) was applied to two cells (n≧2).

H1 histamine receptor = target: T3, H1 histamine receptor (Bos taurus, UniProt P30546); assay: H1 competitive binding assay, [3H]pyrilamine, bovine cerebellar membranes; settings: bovine cerebellar membrane
T3 construct: the receptors were obtained from bovine cerebellar membrane tissue; from tissue; host or cells: bovine cerebellar membranes

M2 muscarinic receptor = target: T4, M2 muscarinic receptor (Homo sapiens, UniProt P08172); assay: M2 binding assay, [3H]-scopolamine N-methyl chloride, CHO cells; settings: human recombinant
T4 construct: purchased PerkinElmer, Inc., Wellesley, Mass; host or cells: CHO cells
T4 sequence (P08172 1-466): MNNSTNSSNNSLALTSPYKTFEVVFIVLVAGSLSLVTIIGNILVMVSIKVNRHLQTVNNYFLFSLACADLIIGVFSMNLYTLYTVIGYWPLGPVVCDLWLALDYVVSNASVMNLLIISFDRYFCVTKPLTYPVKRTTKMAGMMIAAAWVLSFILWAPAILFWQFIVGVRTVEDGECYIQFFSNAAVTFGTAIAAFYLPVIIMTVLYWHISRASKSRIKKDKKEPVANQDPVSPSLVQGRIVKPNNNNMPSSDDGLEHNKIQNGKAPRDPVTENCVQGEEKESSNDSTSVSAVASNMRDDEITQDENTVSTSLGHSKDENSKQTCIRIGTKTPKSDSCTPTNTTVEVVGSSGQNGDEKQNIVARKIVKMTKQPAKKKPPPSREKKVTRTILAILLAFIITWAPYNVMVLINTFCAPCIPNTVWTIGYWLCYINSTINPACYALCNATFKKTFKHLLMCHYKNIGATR

T3 sequence (P30546 whole entry): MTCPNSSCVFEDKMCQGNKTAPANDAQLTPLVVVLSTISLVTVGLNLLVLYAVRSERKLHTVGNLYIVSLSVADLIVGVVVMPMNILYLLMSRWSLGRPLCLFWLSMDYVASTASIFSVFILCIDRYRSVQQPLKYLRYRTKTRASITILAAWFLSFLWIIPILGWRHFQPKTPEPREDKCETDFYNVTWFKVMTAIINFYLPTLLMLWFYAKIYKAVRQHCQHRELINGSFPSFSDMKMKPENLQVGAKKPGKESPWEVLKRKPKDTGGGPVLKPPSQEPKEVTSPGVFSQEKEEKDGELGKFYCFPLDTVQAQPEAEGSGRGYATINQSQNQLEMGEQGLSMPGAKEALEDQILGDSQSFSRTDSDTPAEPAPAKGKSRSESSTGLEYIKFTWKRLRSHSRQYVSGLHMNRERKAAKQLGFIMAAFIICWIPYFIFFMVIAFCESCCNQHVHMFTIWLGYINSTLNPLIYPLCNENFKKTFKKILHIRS
Sequence of D2 receptors (P14416 whole entry): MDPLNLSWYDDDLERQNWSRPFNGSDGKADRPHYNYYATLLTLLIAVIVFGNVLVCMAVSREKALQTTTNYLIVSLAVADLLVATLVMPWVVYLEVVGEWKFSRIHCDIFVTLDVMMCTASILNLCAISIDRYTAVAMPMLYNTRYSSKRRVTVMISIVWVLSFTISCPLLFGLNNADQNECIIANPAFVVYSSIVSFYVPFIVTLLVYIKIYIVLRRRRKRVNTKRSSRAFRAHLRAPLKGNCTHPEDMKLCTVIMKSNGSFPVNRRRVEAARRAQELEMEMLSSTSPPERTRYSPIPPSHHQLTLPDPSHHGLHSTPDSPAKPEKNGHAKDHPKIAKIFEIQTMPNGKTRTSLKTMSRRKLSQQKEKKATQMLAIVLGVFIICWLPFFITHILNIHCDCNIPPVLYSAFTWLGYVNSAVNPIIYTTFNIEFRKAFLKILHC
T1 sequence (P20309 whole entry): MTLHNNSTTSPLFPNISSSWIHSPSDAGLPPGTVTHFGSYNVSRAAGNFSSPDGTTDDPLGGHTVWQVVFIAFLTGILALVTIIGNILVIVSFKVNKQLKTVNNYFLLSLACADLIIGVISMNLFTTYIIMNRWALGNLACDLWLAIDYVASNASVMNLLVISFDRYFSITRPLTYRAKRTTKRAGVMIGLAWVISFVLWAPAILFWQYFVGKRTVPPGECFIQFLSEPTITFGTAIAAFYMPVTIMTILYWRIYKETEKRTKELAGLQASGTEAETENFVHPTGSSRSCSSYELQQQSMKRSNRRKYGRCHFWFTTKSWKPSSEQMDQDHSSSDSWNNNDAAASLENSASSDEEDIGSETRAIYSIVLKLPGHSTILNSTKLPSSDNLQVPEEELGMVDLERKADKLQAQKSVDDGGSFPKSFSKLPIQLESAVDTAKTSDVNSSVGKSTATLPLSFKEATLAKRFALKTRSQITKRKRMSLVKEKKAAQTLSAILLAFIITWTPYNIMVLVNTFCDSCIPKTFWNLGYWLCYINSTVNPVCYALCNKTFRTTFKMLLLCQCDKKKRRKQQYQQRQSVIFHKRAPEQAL
Sequence of Dopamine, D1 (P21728 whole entry): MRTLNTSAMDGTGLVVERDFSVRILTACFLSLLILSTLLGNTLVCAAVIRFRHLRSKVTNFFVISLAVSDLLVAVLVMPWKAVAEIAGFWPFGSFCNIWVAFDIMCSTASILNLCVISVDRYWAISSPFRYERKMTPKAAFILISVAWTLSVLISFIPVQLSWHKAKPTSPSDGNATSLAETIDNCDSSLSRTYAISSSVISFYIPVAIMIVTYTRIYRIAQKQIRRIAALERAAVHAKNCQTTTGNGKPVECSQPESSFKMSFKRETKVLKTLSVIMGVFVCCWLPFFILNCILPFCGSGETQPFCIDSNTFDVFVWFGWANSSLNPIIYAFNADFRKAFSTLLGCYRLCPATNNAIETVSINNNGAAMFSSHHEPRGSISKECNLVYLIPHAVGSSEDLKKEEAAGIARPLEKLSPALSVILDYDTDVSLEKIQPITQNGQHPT
Sequence of hERG channel (Q12809 whole entry): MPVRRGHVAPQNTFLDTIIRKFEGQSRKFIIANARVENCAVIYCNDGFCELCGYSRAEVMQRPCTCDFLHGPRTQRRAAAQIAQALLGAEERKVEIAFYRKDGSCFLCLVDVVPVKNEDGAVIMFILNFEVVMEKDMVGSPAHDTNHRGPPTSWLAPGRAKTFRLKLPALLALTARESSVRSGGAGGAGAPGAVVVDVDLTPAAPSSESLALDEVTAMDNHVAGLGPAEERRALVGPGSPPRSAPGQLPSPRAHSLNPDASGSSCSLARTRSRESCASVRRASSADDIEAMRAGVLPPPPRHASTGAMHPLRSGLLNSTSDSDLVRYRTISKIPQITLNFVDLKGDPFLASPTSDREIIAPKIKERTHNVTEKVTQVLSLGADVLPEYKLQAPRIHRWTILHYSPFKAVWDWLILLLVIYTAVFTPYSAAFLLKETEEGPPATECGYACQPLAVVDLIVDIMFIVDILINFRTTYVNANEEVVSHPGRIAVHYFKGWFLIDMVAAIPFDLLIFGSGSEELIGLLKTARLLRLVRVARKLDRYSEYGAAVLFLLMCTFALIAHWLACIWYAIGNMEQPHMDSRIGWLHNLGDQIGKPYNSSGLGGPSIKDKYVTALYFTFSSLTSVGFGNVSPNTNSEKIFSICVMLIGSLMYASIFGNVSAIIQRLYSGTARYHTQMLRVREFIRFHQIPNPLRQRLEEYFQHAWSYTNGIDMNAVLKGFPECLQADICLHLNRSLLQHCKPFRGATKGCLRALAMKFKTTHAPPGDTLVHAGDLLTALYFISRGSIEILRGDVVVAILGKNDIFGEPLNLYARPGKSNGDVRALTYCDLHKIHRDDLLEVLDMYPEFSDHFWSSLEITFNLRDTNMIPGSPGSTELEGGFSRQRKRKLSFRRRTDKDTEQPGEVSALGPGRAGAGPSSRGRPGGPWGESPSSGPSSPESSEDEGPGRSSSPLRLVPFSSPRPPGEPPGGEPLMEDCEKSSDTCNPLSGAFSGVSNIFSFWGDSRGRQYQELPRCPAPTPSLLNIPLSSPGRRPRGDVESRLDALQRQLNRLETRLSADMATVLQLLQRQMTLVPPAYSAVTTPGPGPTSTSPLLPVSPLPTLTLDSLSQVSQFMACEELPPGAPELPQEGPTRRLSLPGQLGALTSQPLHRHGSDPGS

Row | Structure (SMILES) | Ki (alpha 1 receptors) | Ki (alpha 2 receptors) | Ki (D2 receptors) | Ki (Dopamine, D1) | Ki (M3 muscarinic receptor) | Ki (M1 muscarinic receptor) | Ki (H1 histamine receptor) | Ki (M2 muscarinic receptor) | hERG at 10 micromolar (% blocking of the hERG channel) (hERG channel)
1 | COc1ccc2c(c1)Oc1ccc(Br)cc1N=C2N1CCN(CC(C)(C)C(=O)O)CC1 [Compound 86] | – | – | – | – | – | – | – | – | 86.90%
2 | COc1ccc2c(c1)Oc1ccccc1C(N1CCN(CC(C)(C)C(=O)O)CC1)=N2 [Compound 32] | > 10 µM | > 10 µM | > 10 µM | > 10 µM | > 10 µM | > 10 µM | 3.77 µM | > 10 µM | 1.60%
3 | O=C(O)C1(CN2CCN(C3=Nc4ccccc4Oc4ccccc43)CC2)CC1 [Compound 2] | > 10 µM | > 10 µM | > 10 µM | > 10 µM | > 10 µM | > 10 µM | 0.0514 µM | > 10 µM | 19%
4 | COc1ccc2c(c1)N=C(N1CCN(CC(C)(C)C(=O)O)CC1)c1cc(C)ccc1O2 [Compound 56] | > 10 µM | > 10 µM | > 10 µM | > 10 µM | > 10 µM | > 10 µM | 0.117 µM | – | 0.30%
5 | COc1ccc2c(c1)N=C(N1CCN(CC(C)(C)C(=O)O)CC1)c1cc(OC)ccc1O2 [Compound 23] | > 10 µM | > 10 µM | > 10 µM | > 10 µM | > 10 µM | > 10 µM | 0.135 µM | > 10 µM | 8.90%
6 | COc1ccc2c(c1)C(N1CCN(CC(C)(C)C(=O)O)CC1)=Nc1ccc(C)cc1O2 [Compound 58] | > 10 µM | > 10 µM | 4.03 µM | 2 µM | > 10 µM | > 10 µM | – | > 10 µM | 0.20%
7 | COc1ccc2c(c1)C(N1CCN(CC(C)(C)C(=O)O)CC1)=Nc1ccccc1O2 [Compound 12] | > 10 µM | > 10 µM | 1.24 µM | 5.22 µM | > 10 µM | > 10 µM | 0.137 µM | > 10 µM | 7.20%
8 | Cc1ccc2c(c1)Oc1ccc(C)cc1C(N1CCN(CC(C)(C)C(=O)O)CC1)=N2 [Compound 31] | > 10 µM | > 10 µM | 2.2 µM | 0.873 µM | > 10 µM | > 10 µM | 0.239 µM and 0.337 µM and 0.244 µM | – | 3.80%
9 | COc1ccc2c(c1)C(N1CCN(CC(C)(C)C(=O)O)CC1)=Nc1ccc(Br)cc1O2 [Compound 72] | > 10 µM | – | 0.47 µM | 0.514 µM | > 10 µM | > 10 µM | – | – | 10.90%

Now from value to compound, other results behind:

Row | Ki (alpha 1 receptors) | Ki (alpha 2 receptors) | Ki (D2 receptors) | Ki (Dopamine, D1) | Ki (M3 muscarinic receptor) | Ki (M1 muscarinic receptor) | Ki (H1 histamine receptor) | Ki (M2 muscarinic receptor) | Structure (SMILES) | hERG at 10 micromolar (% blocking of the hERG channel) (hERG channel)
10 | > 10 µM | > 10 µM | > 10 µM | > 10 µM | > 10 µM | > 10 µM | 0.0188 µM | – | Cc1ccc2c(c1)Oc1ccccc1N=C2N1CCN(CC(C)(C)C(=O)O)CC1 [Compound 46] | 20.40%
11 | > 10 µM | > 10 µM | – | – | > 10 µM | > 10 µM | 0.0414 µM | – | Cc1ccc2c(c1)Oc1ccc(Br)cc1N=C2N1CCN(CC(C)(C)C(=O)O)CC1 [Compound 44] | 65.90%
12 | > 10 µM | > 10 µM | > 10 µM | 5.06 µM | > 10 µM | > 10 µM | 0.0906 µM | > 10 µM | Cc1ccc2c(c1)Oc1ccccc1C(N1CCN(CC(C)(C)C(=O)O)CC1)=N2 [Compound 30] | 4.50%
13 | > 10 µM | – | – | – | > 10 µM | > 10 µM | 0.0271 µM | – | COc1ccc2c(c1)C(N1CCN(CC(C)(C)C(=O)O)CC1)=Nc1cc(F)ccc1O2 [Compound 48] | –
14 | > 10 µM | > 10 µM | > 10 µM | > 10 µM | > 10 µM | > 10 µM | 1.12 µM | – | COc1ccc2c(c1)N=C(N1CCN(CC(C)(C)C(=O)O)CC1)c1ccc(OC)cc1O2 [Compound 42] | 5.80%
15 | > 10 µM | > 10 µM | > 10 µM | > 10 µM | > 10 µM | > 10 µM | – | – | COc1ccc2c(c1)Oc1ccc(OC)cc1C(N1CCN(CC(C)(C)C(=O)O)CC1)=N2 [Compound 35] | 0.10%
16 | > 10 µM | > 10 µM | 1.67 µM | 3.16 µM | > 10 µM | > 10 µM | 0.0396 µM | > 10 µM | Cc1ccc2c(c1)C(N1CCN(CC(C)(C)C(=O)O)CC1)=Nc1ccccc1O2 [Compound 10] | 14%
17 | 1.96 µM | > 10 µM | 1.59 µM | 1.93 µM | > 10 µM | > 10 µM | 0.0768 µM | > 10 µM | Cc1ccc2c(c1)N=C(N1CCN(CC(C)(C)C(=O)O)CC1)c1cc(C)ccc1O2 [Compound 20] | 5.30%
18 | > 10 µM | > 10 µM | 0.222 µM | 1.73 µM | > 10 µM | > 10 µM | 0.217 µM | > 10 µM | O=C(O)C1(CN2CCN(C3=Nc4ccccc4Oc4ccc(Cl)cc43)CC2)CC1 [Compound 7] | 42.8%
19 | > 10 µM | > 10 µM | > 10 µM | – | > 10 µM | > 10 µM | 0.0554 µM | > 10 µM | Cc1ccc2c(c1)N=C(N1CCN(CC(C)(C)C(=O)O)CC1)c1ccc(C)cc1O2 [Compound 52] | 19.80%
20 | 2.73 µM | > 10 µM | 0.0961 µM | 7.17 µM | – | – | 0.0138 µM | – | CC(C)(CCN1CCN(C2=Nc3ccccc3Oc3ccc(Cl)cc32)CC1)C(=O)O [Compound 6] | 27%
21 | 1.99 µM | – | 0.883 µM | 3.45 µM | > 10 µM | > 10 µM | 0.012 µM | > 10 µM | CC(C)(CN1CCN(C2=Nc3cc(Br)ccc3Oc3ccccc32)CC1)C(=O)O [Compound 17] | 30.10%
22 | 1.21 µM | 5.82 µM | 1.08 µM | 4.97 µM | – | > 10 µM | 0.0404 µM | > 10 µM | COc1ccc2c(c1)C(N1CCN(CC(C)(C)C(=O)O)CC1)=Nc1cc(C)ccc1O2 [Compound 54] | 6.10%
